Test results from patent US12569502B2, “Use of bile acids and derivatives thereof in preparation of GPR39 agonist” (PEKING UNIVERSITY, priority 2019, dated 2026).
Substitutions are numbered along the chain they refer to. Like-named read-outs stand apart in the source and are kept apart here.

What was measured:
GPR39 [1] = target: T1, GPR39 (Homo sapiens, UniProt O43194); conditions: cell line that transiently or stably expresses GPR39; read-out: phosphoinositide accumulation EC50; cited from earlier work
T1 sequence (O43194 1-453): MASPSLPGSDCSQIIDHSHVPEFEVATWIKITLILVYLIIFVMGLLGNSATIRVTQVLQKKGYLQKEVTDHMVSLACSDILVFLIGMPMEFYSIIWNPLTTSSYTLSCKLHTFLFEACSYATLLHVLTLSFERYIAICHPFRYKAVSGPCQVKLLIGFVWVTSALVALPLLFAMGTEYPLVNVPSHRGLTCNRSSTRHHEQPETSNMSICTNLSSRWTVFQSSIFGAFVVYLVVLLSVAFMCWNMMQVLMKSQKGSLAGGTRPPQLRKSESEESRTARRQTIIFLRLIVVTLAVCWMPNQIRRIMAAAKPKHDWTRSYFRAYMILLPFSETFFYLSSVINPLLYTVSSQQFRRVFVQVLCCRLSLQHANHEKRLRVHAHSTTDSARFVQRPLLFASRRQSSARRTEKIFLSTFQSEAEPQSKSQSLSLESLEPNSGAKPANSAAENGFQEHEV

GPR39 [2] = target: T1, GPR39; conditions: cell line that transiently or stably expresses GPR39; read-out: cAMP elevation EC50; cited from earlier work
GPR39 mutant D330A = target: T2, GPR39 mutant D330A (Mus musculus, UniProt Q5U431, D330A); test: Calcium imaging of GPR39 activation site mutant, transiently transfected cells; type: cell-based; conditions: FIG. 7
T2 construct: 3HA (N); P2A-mCherry (C); expressed in transfected cells; host or cells: HEK293T, transient (Lipofectamine 3000)
T2 sequence (Q5U431 1-456 D330A): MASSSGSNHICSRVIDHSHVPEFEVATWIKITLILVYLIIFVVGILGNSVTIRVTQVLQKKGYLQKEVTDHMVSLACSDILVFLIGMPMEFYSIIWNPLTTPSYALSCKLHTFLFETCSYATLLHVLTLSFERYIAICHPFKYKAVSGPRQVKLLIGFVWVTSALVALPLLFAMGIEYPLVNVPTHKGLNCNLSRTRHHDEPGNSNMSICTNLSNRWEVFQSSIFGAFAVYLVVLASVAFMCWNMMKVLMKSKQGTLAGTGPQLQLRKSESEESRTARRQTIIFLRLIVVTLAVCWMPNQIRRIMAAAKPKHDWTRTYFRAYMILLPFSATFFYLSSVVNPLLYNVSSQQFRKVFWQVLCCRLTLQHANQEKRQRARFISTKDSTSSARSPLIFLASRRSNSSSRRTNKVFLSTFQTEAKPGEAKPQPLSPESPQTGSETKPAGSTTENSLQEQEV
Text: (§1) GPR39 mutants E90A, F115A, E116A and D330A were firstly constructed according to the method of Example 5.

GPR39 mutant F115A = target: T3, GPR39 mutant F115A (Mus musculus, UniProt Q5U431, F115A); test: as above; type: cell-based; conditions: FIG. 7
T3 construct: 3HA (N); P2A-mCherry (C); expressed in transfected cells; host or cells: HEK293T, transient (Lipofectamine 3000)
T3 sequence (Q5U431 1-456 F115A): T2 sequence (Q5U431 1-456 D330A) with F115A, A330D
Text: as §1

[3] = target: T4, Ghrelin receptor (GHSR, NP_940799.1) (Homo sapiens, UniProt Q92847); test: Confocal calcium imaging of Ghrelin receptor family, overexpressed in HEK293T cells; type: cell-based; conditions: 200 μM
T4 construct: mCherry; host or cells: HEK293T, transient
Experimental: (§2) According to the transient transfection method of Example 5.2, the 6 receptors of Ghrelin family except GPR39 were overexpressed in HEK293T cells respectively (the expression vectors for these 6 receptors came from the research group of Rao Yi, Peking University), and calcium dye was incubated. An inverted laser confocal microscope (leica Co.) was used to detect the activation of the 6 receptors of Ghrelin family by LCAS. The specific operations were as below: placing the cells to be detected on the microscope stage, detecting the fluorescence signal value of the calcium dye Fluo8 with the 488 nm channel, and detecting the fluorescence signal value of mCherry with the 543 nm channel. All receptors fused to express the red fluorescence protein mCherry, and the expression of receptors was determined by detecting the red fluorescence emitted from mCherry.

[4] = target: T5, Motilin receptor (MLNR, NP_001498.1) (Homo sapiens, UniProt O43193); test: as above; type: cell-based; conditions: 200 μM
T5 construct: mCherry; host or cells: HEK293T, transient
Experimental: as §2

[5] = target: T6, Neuromedin-U receptor 1 (NMUR1, NP_006047.3) (Homo sapiens, UniProt Q9HB89); test: as above; type: cell-based; conditions: 200 μM
T6 construct: mCherry; host or cells: HEK293T, transient
T6 sequence (Q9HB89 1-426): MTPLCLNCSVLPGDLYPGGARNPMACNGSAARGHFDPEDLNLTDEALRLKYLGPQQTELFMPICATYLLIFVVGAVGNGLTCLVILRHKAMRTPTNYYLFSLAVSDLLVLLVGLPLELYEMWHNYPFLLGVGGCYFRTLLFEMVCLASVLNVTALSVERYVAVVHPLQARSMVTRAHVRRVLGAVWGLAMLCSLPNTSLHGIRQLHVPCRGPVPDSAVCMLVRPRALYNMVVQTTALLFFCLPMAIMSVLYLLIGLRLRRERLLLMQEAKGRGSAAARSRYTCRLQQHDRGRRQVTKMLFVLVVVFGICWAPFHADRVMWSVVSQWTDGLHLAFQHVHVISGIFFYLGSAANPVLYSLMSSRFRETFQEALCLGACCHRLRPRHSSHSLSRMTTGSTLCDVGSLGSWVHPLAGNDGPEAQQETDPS
Experimental: as §2

[6] = target: T7, Neuromedin-U receptor 2 (NMUR2, NP_064552.3) (Homo sapiens, UniProt Q9GZQ4); test: as above; type: cell-based; conditions: 200 μM
T7 construct: mCherry; host or cells: HEK293T, transient
Experimental: as §2

[7] = target: T8, Neurotensin receptor 1 (NTSR1, NP_002522.2) (Homo sapiens, UniProt P30989); test: as above; type: cell-based; conditions: 200 μM
T8 construct: mCherry; host or cells: HEK293T, transient
Experimental: as §2

[8] = target: T9, Neurotensin receptor 2 (NTSR2, NP_036476.2) (Homo sapiens, UniProt O95665); test: as above; type: cell-based; conditions: 200 μM
T9 construct: mCherry; host or cells: HEK293T, transient
Experimental: as §2

T9 sequence (O95665 whole entry): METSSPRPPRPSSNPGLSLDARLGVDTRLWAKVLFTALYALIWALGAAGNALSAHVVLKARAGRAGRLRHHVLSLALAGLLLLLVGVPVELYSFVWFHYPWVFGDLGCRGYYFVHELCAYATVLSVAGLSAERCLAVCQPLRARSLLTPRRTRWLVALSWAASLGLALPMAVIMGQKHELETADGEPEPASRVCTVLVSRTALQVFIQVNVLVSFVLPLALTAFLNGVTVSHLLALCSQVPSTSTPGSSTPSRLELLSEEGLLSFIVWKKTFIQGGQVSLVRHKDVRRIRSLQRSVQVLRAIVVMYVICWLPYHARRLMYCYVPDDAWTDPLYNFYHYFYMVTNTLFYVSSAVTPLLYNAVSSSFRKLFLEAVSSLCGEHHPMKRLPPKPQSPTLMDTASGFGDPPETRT
T5 sequence (O43193 whole entry): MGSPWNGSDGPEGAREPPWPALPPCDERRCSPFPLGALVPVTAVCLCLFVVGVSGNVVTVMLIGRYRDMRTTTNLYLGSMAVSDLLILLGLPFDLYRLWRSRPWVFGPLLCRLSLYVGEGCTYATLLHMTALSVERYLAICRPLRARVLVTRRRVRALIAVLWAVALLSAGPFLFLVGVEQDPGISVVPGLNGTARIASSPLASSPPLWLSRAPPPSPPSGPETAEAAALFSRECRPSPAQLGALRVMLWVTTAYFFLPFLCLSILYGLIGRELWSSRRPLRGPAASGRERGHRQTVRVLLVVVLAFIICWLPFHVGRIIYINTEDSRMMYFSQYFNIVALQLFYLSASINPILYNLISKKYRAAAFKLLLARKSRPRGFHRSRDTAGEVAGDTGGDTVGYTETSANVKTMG
T8 sequence (P30989 whole entry): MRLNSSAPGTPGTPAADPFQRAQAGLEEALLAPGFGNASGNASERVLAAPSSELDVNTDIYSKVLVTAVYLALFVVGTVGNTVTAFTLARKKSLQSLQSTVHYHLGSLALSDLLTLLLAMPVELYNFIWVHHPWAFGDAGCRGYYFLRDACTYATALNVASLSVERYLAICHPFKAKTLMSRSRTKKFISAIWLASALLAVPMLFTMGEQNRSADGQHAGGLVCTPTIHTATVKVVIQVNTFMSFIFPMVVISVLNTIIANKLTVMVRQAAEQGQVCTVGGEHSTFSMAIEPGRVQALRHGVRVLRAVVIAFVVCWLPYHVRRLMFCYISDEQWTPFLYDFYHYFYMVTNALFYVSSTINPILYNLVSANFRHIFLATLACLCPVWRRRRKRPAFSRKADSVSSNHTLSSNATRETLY
T4 sequence (Q92847 whole entry): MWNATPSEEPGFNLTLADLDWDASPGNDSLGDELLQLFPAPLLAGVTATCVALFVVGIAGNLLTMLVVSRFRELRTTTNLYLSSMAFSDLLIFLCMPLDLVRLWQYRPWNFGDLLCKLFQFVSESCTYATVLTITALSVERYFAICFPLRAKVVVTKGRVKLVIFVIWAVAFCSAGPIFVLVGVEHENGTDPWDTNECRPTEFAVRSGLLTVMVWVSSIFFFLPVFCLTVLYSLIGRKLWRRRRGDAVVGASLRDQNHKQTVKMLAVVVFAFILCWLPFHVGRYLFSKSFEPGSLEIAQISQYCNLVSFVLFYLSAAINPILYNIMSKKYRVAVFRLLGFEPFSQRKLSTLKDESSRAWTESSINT
T7 sequence (Q9GZQ4 whole entry): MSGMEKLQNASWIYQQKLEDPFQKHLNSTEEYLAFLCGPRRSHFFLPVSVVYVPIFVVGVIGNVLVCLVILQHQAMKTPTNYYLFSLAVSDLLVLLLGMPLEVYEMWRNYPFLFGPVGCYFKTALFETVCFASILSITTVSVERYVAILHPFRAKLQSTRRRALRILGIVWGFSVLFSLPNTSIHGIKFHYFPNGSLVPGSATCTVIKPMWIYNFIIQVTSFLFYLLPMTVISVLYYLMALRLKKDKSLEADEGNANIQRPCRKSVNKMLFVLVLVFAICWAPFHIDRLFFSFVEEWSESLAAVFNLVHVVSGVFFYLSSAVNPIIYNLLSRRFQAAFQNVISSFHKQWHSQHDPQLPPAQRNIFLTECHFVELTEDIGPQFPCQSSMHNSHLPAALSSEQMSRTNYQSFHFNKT

Row | Compound | EC50 (GPR39 [1]) | EC50 (GPR39 [2]) | activation of mutant D330A (calcium imaging) (GPR39 mutant D330A) | activation of mutant F115A (calcium imaging) (GPR39 mutant F115A) | activation of GHSR (calcium imaging) [3] | activation of MLNR (calcium imaging) [4] | activation of NMUR1 (calcium imaging) [5] | activation of NMUR2 (calcium imaging) [6] | activation of NTSR1 (calcium imaging) [7] | activation of NTSR2 (calcium imaging) [8]
1 | [Zn+2] [Zinc ions, reference compound] | 22 µM | 7.4 µM |  |  |  |  |  |  |  | 
2 | C[C@H](CCC(=O)O)[C@H]1CC[C@H]2[C@@H]3CC[C@@H]4C[C@H](OS(=O)(=O)O)CC[C@]4(C)[C@H]3CC[C@]12C [LCAS] |  |  | activated | activated | cannot be activated | cannot be activated | cannot be activated | cannot be activated | cannot be activated | cannot be activated
